# Laboratory results published in the NIST ThermoML archive (doi:10.1016/j.fluid.2010.09.006).
# Conditions: 345.7 K; Crystal; visual observation
smiles,measurement,value
c1ccc2ccccc2c1 [naphthalene],vapor or sublimation pressure,3000 kPa
